Tests used:
Format in all cases: cell-based
[1] = test system: Candida famata regulatory mutants unable to overproduce riboflavin; test: Sensitivity to monofluoroacetate, Burkholder medium with 0.5% glycerol (Table 7); settings: MFA 0.2–0.4%
Text: (§1) In further experiments, the influence of the aconitase inhibitor, 2-monofluoroacetate (MFA), on the growth of C.famata regulatory mutants unable to overproduce riboflavin was studied in media with glucose (0.5%) or glycerol (0.5%) as the carbon sources.

[2] = test system: Candida famata regulatory mutants unable to overproduce riboflavin; test: Sensitivity to monofluoroacetate, Burkholder medium with 0.5% glucose (Table 8)
Text: as §1

[3] = test system: Candida famata wild type and regulatory mutants able to overproduce riboflavin on iron-rich medium; test: Sensitivity after electroporation to 3CdSO4.8H20, Burkholder medium with 0.3 M sucrose (Table 20); parameters: key: +++: strong growth; ++: weak growth; +: very weak growth; —: absence of growth
Protocol: (§2) Next, the toxicity of CdSO4 (0–25 μM) to regulatory mutants 2-5 and 4-48 and the C. famata wild strain was studied in the medium with sucrose (Table 20).
(§3) It was shown that all three strains appeared to be very sensitive to Cd^+2 ions without any differences between regulatory mutants and the wild-type strain.

[4] = test system: Candida famata wild type and regulatory mutants able to overproduce riboflavin on iron-rich medium; test: as above; parameters: key: +++: strong growth; ++: weak growth; —: absence of growth
Protocol: as §2, §3

SMILES | effect on growth of wild type VKM Y-9 and leu2 auxotroph L20105 [1] | effect on growth of most regulatory mutants [2] | growth ([3]; #2-5, 15 μM) | growth ([3]; #2-5, 20 μM) | growth ([3]; #4-48, 15 μM) | growth ([3]; #4-48, 20 μM) | growth ([3]; VKM Y-9, 15 μM) | growth ([3]; VKM Y-9, 20 μM) | growth ([4]; #2-5, 5 μM) | growth ([4]; #2-5, 10 μM) | growth ([4]; #2-5, 25 μM) | growth ([4]; #4-48, 5 μM) | growth ([4]; #4-48, 10 μM) | growth ([4]; #4-48, 25 μM) | growth ([4]; VKM Y-9, 5 μM) | growth ([4]; VKM Y-9, 10 μM) | growth ([4]; VKM Y-9, 25 μM)
O=C(O)CF [MFA, 2-monofluoroacetate] | not inhibited at all | did not inhibit growth |  |  |  |  |  |  |  |  |  |  |  |  |  |  | 
O.O.O.O.O.O.O.O.O=S(=O)([O-])[O-].O=S(=O)([O-])[O-].O=S(=O)([O-])[O-].[Cd+2].[Cd+2].[Cd+2] [CdSO4×8H2O] |  |  | + | + | + | + | + | + | ++ | ++ | — | ++ | ++ | — | +++ | ++ | —

Source: patent publication US7009045B2 (priority 2000, dated 2006)
